Measurements as given in US9139551B2, “Preparation of a new class of water-soluble ammonium 2,3-dihydroxy-5-((2R,3R)-3,5,7-trihydroxy-4-oxochroman-2-yl) phenolates and their biological activity of alcohol elimination” (priority 2014, dated 2015).
Values after ≈ are worked out from the molar mass of the structure shown. Values joined by “and” are separate entries in the source; they are usually repeats but may differ in a detail not shown here. Equal values may be shown once. Marks after values point to notes of the source that are not given here.

Columns and labels:
[1] = tested on: mice; experiment: Acute toxicity, intraperitoneal administration (mortality, LD50, body weight, dietary); format: in vivo; conditions: for Dead number: 20 mice; for Dead number / mortality: 7 days
Description: Acute Toxicity • Compounds PDHM/TDHM.
140 mice were divided into 7 groups (n=20), each group include 10 males and 10 females, they were treated with different concentrations of dosages and observed for 7 days. Specific experimental groups and experimental results were noted below. Note: Section 1-6 group compound are PDHM groups, and group 7 is a negative control group.
140 mice were divided into 7 groups (n=20), each group include 10 males and 10 females, they were treated with different concentrations of dosage and observed for 7 days. Note: Section 1-6 group compound are PDHM groups, and group 7 is a negative control group.

[2] = tested on: Balb/C mice; experiment: Plasma EtOH concentration assay; format: in vivo; conditions: intragastric 2 mg/kg
Description: Plasma EtOH Concentration Assay. • Blood samples from the tail vein of mice at different time points (0, 15, 30, 45, 60, 90, 120, 240, 480 and 720 minutes) after EtOH (30% ethanol, 0.2 ml/kg bw) or TDHM (2 mg/kg bw), PDHM (2 mg/kg bw) or DHM (2 mg/kg bw) gavage were collected for plasma EtOH concentrations (plasma [EtOH]) assays. (“BW” or “bw”: body weight) • Briefly, the Balb/C mice were put into a restraint tube and the tail was warmed at 37° C. The tail vein at the tip of the tail was punched with a sharp blade. Approximately 0.2 ml venous blood was dropped to a capillary blood collection tube containing lithium heparin (Ram Scientific). Blood samples were centrifuged at 2500 rpm for 20 min. The supernatant was collected and stored at −80° C. until assay. The EtOH content of each blood sample was measured in duplicate along with EtOH standards using the alcohol oxidase reaction procedures (EnzyChrom™ Ethanol Acid Assay Kit, ECET-100) (Liang et al., 2007). The sample preparations were the same as described above.

[3] = tested on: Balb/C mice; experiment: Anti-alcoholism test (agent 30 min after alcohol); format: in vivo
From the text: Anti-Alcoholism Tests • Groups design and treatment before experiment are as the same as that in Deintoxication test. […]

[4] = tested on: Balb/C mice; experiment: Climbing net test; format: in vivo; conditions: 2 mg/kg gavage 30 min before alcohol; vertical metal net
Description: Climbing Net Test • Groups design and treatment before experiment are as the same as that in deintoxication test. […] 30 minutes later all mice administrated alcohol (liquid Erguotou, ethonol concentration was diluted to 30%) 0.2 mL/kg BW and placed on a vertical metal net and measured the time when mice climbed on net.

[5] = physchem; conditions: water
[6] = tested on: Balb/C mice; experiment: Deintoxication test (agent 30 min before alcohol)
[7] = Acute toxicity, intragastric administration (maximum tolerated dose); conditions: both, mouse, in vivo, po, 1250 mg/kg
[8] = tested on: mice; experiment: as above; conditions: for average body weight of mice / dietary change-by-day of mice: PDHM MTD 3750 mg/kg i.g.
[9] = 2 mg/kg gavage 30 min after 30% ethanol
[10] = 2 mg/kg gavage 30 min after 30% ethanol, 20 mice
[11] = 2 mg/kg gavage 30 min before 30% ethanol
[12] = agents intragastric 30 minutes before drinking

Compound: O=C1c2c(O)cc(O)cc2O[C@H](c2cc(O)c(O)c(O)c2)[C@H]1O [PDHM, piperidinium 2,3-dihydroxy-5-((2R,3R)-3,5,7-trihydroxy-4-oxochroman-2-yl)phenolate]
- Dead number ([1]; PDHM 853.27 mg/kg i.p.): 0
- mortality ([1]; PDHM 853.27 mg/kg i.p.): 0%
- average dietary of mice ([1]; PDHM 853.27 mg/kg i.p., D1): 3.79 g
- average dietary of mice ([1]; PDHM 853.27 mg/kg i.p., D2): 4.58 g
- average dietary of mice ([1]; PDHM 853.27 mg/kg i.p., D3): 3.6 g
- average dietary of mice ([1]; PDHM 853.27 mg/kg i.p., D4): 4.92 g
- average dietary of mice ([1]; PDHM 853.27 mg/kg i.p., D5): 5.76 g
- average dietary of mice ([1]; PDHM 853.27 mg/kg i.p., D6): 5.31 g
- average dietary of mice ([1]; PDHM 853.27 mg/kg i.p., D7): 5.83 g
- Dead number ([1]; PDHM 874.6 mg/kg i.p.): 6
- mortality ([1]; PDHM 874.6 mg/kg i.p.): 30%
- average dietary of mice ([1]; PDHM 874.6 mg/kg i.p., D1): 3.91 g
- average dietary of mice ([1]; PDHM 874.6 mg/kg i.p., D2): 4.73 g
- average dietary of mice ([1]; PDHM 874.6 mg/kg i.p., D3): 5.81 g
- average dietary of mice ([1]; PDHM 874.6 mg/kg i.p., D4): 5.43 g
- average dietary of mice ([1]; PDHM 874.6 mg/kg i.p., D5): 4.97 g
- average dietary of mice ([1]; PDHM 874.6 mg/kg i.p., D6): 5.88 g
- average dietary of mice ([1]; PDHM 874.6 mg/kg i.p., D7): 5.72 g
- Dead number ([1]; PDHM 896.47 mg/kg i.p.): 10
- mortality ([1]; PDHM 896.47 mg/kg i.p.): 50%
- average dietary of mice ([1]; PDHM 896.47 mg/kg i.p., D1): 3.35 g
- average dietary of mice ([1]; PDHM 896.47 mg/kg i.p., D2): 4.92 g
- average dietary of mice ([1]; PDHM 896.47 mg/kg i.p., D3): 5.78 g
- average dietary of mice ([1]; PDHM 896.47 mg/kg i.p., D4): 6.04 g
- average dietary of mice ([1]; PDHM 896.47 mg/kg i.p., D5): 5.72 g
- average dietary of mice ([1]; PDHM 896.47 mg/kg i.p., D6): 5.34 g
- average dietary of mice ([1]; PDHM 896.47 mg/kg i.p., D7): 5.65 g
- Dead number ([1]; PDHM 918.88 mg/kg i.p.): 12
- mortality ([1]; PDHM 918.88 mg/kg i.p.): 60%
- average dietary of mice ([1]; PDHM 918.88 mg/kg i.p., D1): 4.21 g
- average dietary of mice ([1]; PDHM 918.88 mg/kg i.p., D2): 4.79 g
- average dietary of mice ([1]; PDHM 918.88 mg/kg i.p., D3): 5.21 g
- average dietary of mice ([1]; PDHM 918.88 mg/kg i.p., D4): 6.08 g
- average dietary of mice ([1]; PDHM 918.88 mg/kg i.p., D5): 5.83 g
- average dietary of mice ([1]; PDHM 918.88 mg/kg i.p., D6): 6.24 g
- average dietary of mice ([1]; PDHM 918.88 mg/kg i.p., D7): 5.13 g
- Dead number ([1]; PDHM 941.85 mg/kg i.p.): 18
- mortality ([1]; PDHM 941.85 mg/kg i.p.): 90%
- average dietary of mice ([1]; PDHM 941.85 mg/kg i.p., D1): 4.76 g
- average dietary of mice ([1]; PDHM 941.85 mg/kg i.p., D2): 3.92 g
- average dietary of mice ([1]; PDHM 941.85 mg/kg i.p., D3): 4.66 g
- average dietary of mice ([1]; PDHM 941.85 mg/kg i.p., D4): 5.82 g
- average dietary of mice ([1]; PDHM 941.85 mg/kg i.p., D5): 6.15 g
- average dietary of mice ([1]; PDHM 941.85 mg/kg i.p., D6): 5.79 g
- average dietary of mice ([1]; PDHM 941.85 mg/kg i.p., D7): 5.43 g
- Dead number ([1]; PDHM 965.4 mg/kg i.p.): 20
- mortality ([1]; PDHM 965.4 mg/kg i.p.): 100%
- average dietary of mice ([1]; PDHM 965.4 mg/kg i.p., D1): 0 g
- average dietary of mice ([1]; PDHM 965.4 mg/kg i.p., D2): 0 g
- average dietary of mice ([1]; PDHM 965.4 mg/kg i.p., D3): 0 g
- average dietary of mice ([1]; PDHM 965.4 mg/kg i.p., D4): 0 g
- average dietary of mice ([1]; PDHM 965.4 mg/kg i.p., D5): 0 g
- average dietary of mice ([1]; PDHM 965.4 mg/kg i.p., D6): 0 g
- average dietary of mice ([1]; PDHM 965.4 mg/kg i.p., D7): 0 g
- effect on dietary and body weight ([1]; mice): no significant effect
- LD50 ([1]; mice, i.p., observed 7 days): 888.79 to 914.58 mg/kg and 748.69 mg/kg
- blood alcohol concentration vs control group treated with saline [2]: significantly decreased
- reduction of blood alcohol concentration compared with DHM [2]: better beneficial effect than DHM
- Sleep time M ± SD [3, 9]: 107.71 ± 36.87*^& min
- Tolerance time M ± SD [3, 9]: 22.14 ± 15 min
- Dead number [3, 10]: 2 piece
- Rate of drunk [3, 10]: 10%
- sleep time in drunk mice comparing with DHM ([3]; 2 mg/kg gavage 30 min after alcohol): remarkably shorten
- climbing [4]: 392.25 ± 76.67^#& min
- solubility [5]: 5000 µg/mL (≈ 15.6 mM)
- Sleep time M ± SD [6, 11]: 125.33 ± 33.75 min
- Tolerance time M ± SD [6, 11]: 25.43 ± 10.80 min
- Dead number ([6]; 2 mg/kg gavage 30 min before 30% ethanol, 20 mice): 2 piece
- holding time comparing with DHM [6, 12]: shorten
- tolerance time of righting reflex disappearing comparing with DHM [6, 12]: obviously prolonged
- MTD at 7 days [7]: 3750 mg/kg
- average body weight of mice ([8]; D1): 1.97 g
- dietary change-by-day of mice ([8]; D1): 5.98 g
- average body weight of mice ([8]; D2): 3.47 g
- dietary change-by-day of mice ([8]; D2): 6.1 g
- average body weight of mice ([8]; D3): 4.77 g
- dietary change-by-day of mice ([8]; D3): 6.03 g
- average body weight of mice ([8]; D4): 6.37 g
- dietary change-by-day of mice ([8]; D4): 6.14 g
- average body weight of mice ([8]; D5): 7.38 g
- dietary change-by-day of mice ([8]; D5): 6.48 g
- average body weight of mice ([8]; D6): 8.41 g
- dietary change-by-day of mice ([8]; D6): 6.32 g
- average body weight of mice ([8]; D7): 9.67 g
- dietary change-by-day of mice ([8]; D7): 6.57 g
- pathological examination of stomach, liver, kidney ([8]; mice at MTD, end of 7-day observation): no obvious degeneration, necrosis and other changes
- pathology changes in livers, kidneys, hearts and lungs ([8]; mice of the toxicity experiments): No degeneration and necrosis pathology changes
- deaths in preliminary experiments ([8]; mice, different doses, gavage once, observed 7 days): no deaths occurred
- deaths during the observation period at MTD ([8]; mice, gavage three times a day, 7 days): No deaths
